These results are taken from PMC5749289, “Cytotoxicity Study of Cyclopentapeptide Analogues of Marine Natural Product Galaxamide towards Human Breast Cancer Cells” (Oxidative Medicine and Cellular Longevity, 2017).

The structures appear in SMILES notation. ≈ marks a conversion by molar mass, not a printed value. Where a SMILES comes first, the peptide text is derived from it.

Series [1] has as its system human breast carcinoma MB-MDA-231. Description: cells. It is filed as cell-based. To be noted: 48 h. The method, then:
(§1) Human hepatocellular carcinoma HepG2, human breast carcinoma MCF-7, human epitheloid cervix carcinoma HeLa, human breast carcinoma MB-MDA-231 cell lines, and a normal human umbilical vein endothelial cell line (HUVECs) were obtained from the China Cell Bank of the Institute of Biochemistry and were cultured in a DMEM culture medium (DMEM, Corning, NY, USA) containing 10% fetal bovine serum (FBS, Hyclone, Logan, UT, USA), 1% penicillin-streptomycin, and an antifungal agent in a 5% CO2-humidified atmosphere at 37°C. The culture medium was replaced once in a day. Trypsin digestion method was adopted for cell propagation. Upon reaching 80–90% confluence, the cells were rinsed twice with PBS. A certain amount of 0.25% trypsin digestion solution was then added and maintained for 3–5 min at 37°C. Afterward, DMEM culture medium containing 10% fetal bovine serum was added to terminate the digestion. The cells were then blown well to form single-cell suspensions.
(§2) The cell viability was determined by measuring the ability of cells to transform MTT (3-(4,5-dimethylthiazol-2-yl)-2,5-diphenyltetrazolium bromide) (GENView, Houston, TX, USA) to a purple formazan dye. The cells were seeded in 96-well cell culture plates at 2.5 × 10^3 cells/well for 24 h. The cells were then incubated with galaxamide and its analogues for 48 h. After incubation, 20 μL/well of MTT solution (5 mg/mL phosphate buffered saline) was added and incubated for 5 h. The medium was aspirated and replaced with 100 μL/well of DMSO to dissolve the formazan salt. The color intensity of the formazan solution, which reflects the cell growth condition, was measured at 570 nm using a microplate spectrophotometer (SpectroAma™ 250, Winooski, VT, USA).

Series [2] deals with human breast carcinoma MCF-7. Kind of series: cells. It is filed as cell-based. How it is done: as §1, §2
Series [3] deals with human epitheloid cervix carcinoma HeLa. Kind of series: cells. Type of series: cell-based. The following applies: 48 h. How it is done: as §1, §2
For series [4], the system named is human hepatocellular carcinoma HepG2. Description: cells. It is filed as cell-based. The following applies: 48 h. The method, then: as §1, §2
Series [5] relates to normal human umbilical vein endothelial cell line (HUVECs). Type of series: cell-based. The following applies: 48 h. The method, then: as §1, §2
The subject of series [6] is MCF-7 cells. Description: Annexin V-FITC/PI apoptosis, flow cytometry. It is filed as cell-based, human. The following applies: MCF-7, 2.5, 5 and 10 μg/mL, 48 h. The method, then: The apoptotic cells were quantified using an Annexin V-FITC (fluorescein isothiocyanate) (Sigma-Aldrich, St. Louis, MO, USA) cell apoptosis assay kit according to the instruction provided with the kit. In brief, about 1.5 × 10^5 cells were plated in 6-well plates and treated with galaxamide and representative compound (0, 2.5, 5, and 10 μg/mL) for 48 h. The cells were resuspended in […] binding buffer. Afterwards, […] was added and then incubated in darkness at room temperature for 10 min. The cells were again resuspended in […] binding buffer and stained with […] (propidium iodide). The prepared cells were then analyzed using a flow cytometry (Coulter Epics Elite, Miami, FL, USA). The cells in the FITC-positive and PI-negative fractions were regarded as apoptotic cells.

In series [7] the test system is MCF-7 cells. Description: Cell cycle analysis by PI staining, flow cytometry. Type of series: cell-based, human. The following applies: MCF-7, 2.5, 5.0 and 10.0 μg/mL, 48 h. The method, then:
MCF-7 cells with the density of about 1.5 × 10^5 were incubated with galaxamide and representative analogue (0, 2.5, 5, and 10 μg/mL) for 48 h. Afterwards, collected cells were washed twice with PBS and centrifugation (1000 rpm, 5 min), then fixed using 70% ethanol for 12 h at 4°C. Ethanol was removed by centrifugation (2000 rpm, 5 min), and the cells were washed twice with PBS. Cells were then resuspended in […] and kept at 37°C for 15 min. The cell cycle was analyzed by flow cytometry measuring the amount of PI-labeled DNA in fixed cells.

The test system of series [8] is MCF-7 cells. Description: Mitochondrial membrane potential, JC-1 staining, flow cytometry. The following applies: MCF-7, 2.5, 5.0 and 10.0 μg/mL, 48 h. Type of series: cell-based, human. The method, then:
The cell suspension (2 mL) with a concentration of 1 × 10^5 cells/mL was inoculated per well in 6-well plates for 12 h. After 48 h of incubation with galaxamide and representative compound at the concentration of 0, 2.5, 5, and 10 μg/mL, the supernatant was aspirated and the cells were washed twice with PBS and digested with 0.25% trypsin. The cells were suspended by pipetting, followed by centrifugation (1000 rpm, 5 min). The supernatant was aspirated and the cells were washed with PBS and centrifuged again to obtain a cell pellet. The cells were resuspended by adding and thoroughly mixing 500 μL of PBS in a microcentrifuge tube. Finally, the samples were stained with JC-1 (5,5′,6,6′-tetrachloro-1,1′,3,3′-tetraethylbenzimi-dazolylcarbocyanine iodide) and incubated in darkness at 37°C for 15 min. After the treatment, the cells were detected by flow cytometry.

Series [9] has as its system MCF-7 cells. Kind of series: Intracellular ROS assay, DCFH-DA, flow cytometry. To be noted: MCF-7, 2.5, 5.0 and 10.0 μg/mL, 48 h. It is filed as cell-based, human. How it is done: Two milliliters of cell suspension with a cell concentration of 1 × 10^5 cells/mL was inoculated per well in 6-well plates. After synchronization, the cells were incubated with galaxamide and representative analogue (0, 2.5, 5, and 10 μg/mL) for 48 h. Afterwards, the supernatant was aspirated and the cells were washed twice with PBS and digested with 0.25% trypsin. Then, DMEM supplemented with 10% fetal bovine serum was added to terminate digestion. The cells were suspended by pipetting, followed by centrifugation (1000 rpm, 5 min). The supernatant was aspirated and the cells were washed once with PBS and centrifuged again to obtain a cell pellet. The cells were resuspended by adding and thoroughly mixing […] in a microcentrifuge tube. The samples were then stained with DCFH-DA ([…]) and analyzed by flow cytometry.

Where [10] appears, read: from Table 1 IC50 values (fits MCF-7).

For `COc1cccc2c1C(=O)c1c(O)c3c(c(O)c1C2=O)C[C@@](O)(C(=O)CO)C[C@@H]3O[C@H]1C[C@H](N)[C@H](O)[C@H](C)O1` [Doxorubicin, reference compound], the IC50 is 1.29 ± 0.57 µg/mL (≈ 2.37 µM) in series [1] (Homo sapiens, MD-MBA-231, MTT, mean ± SD of three experiments, read-out: IC50 (μg/mL) values in various cell lines, MD-MBA-231); 0.5 ± 0.48 µg/mL (≈ 0.92 µM) in [2] (Homo sapiens, MCF7, MCF-7, MTT, 48 h, mean ± SD of three experiments, read-out: IC50 (μg/mL) values in various cell lines, MCF-7); 0.32 ± 0.22 µg/mL (≈ 0.589 µM) in series [3] (Homo sapiens, HeLa, MTT, mean ± SD of three experiments, read-out: IC50 (μg/mL) values in various cell lines, HeLa); 2.27 ± 0.24 µg/mL (≈ 4.18 µM) in series [4] (Homo sapiens, HepG2, MTT, mean ± SD of three experiments, read-out: IC50 (μg/mL) values in various cell lines, HepG2).
For `N.N.[Cl][Pt][Cl]` [DPP, reference compound], the “IC50 (μg/mL) values in various cell lines, MD-MBA-231” value (“IC50 (μg/mL) values … MD-MBA-231” below) in [1] (MD-MBA-231, MTT, mean ± SD of three experiments) worked out at 13.75 ± 0.56 µg/mL. The “IC50 (μg/mL) values in various cell lines, MCF-7” value (“IC50 (μg/mL) values … MCF-7” below) in series [2] (MCF-7, MTT, 48 h, mean ± SD of three experiments) amounted to 14.61 ± 2.01 µg/mL. In addition, the “IC50 (μg/mL) values in various cell lines, HeLa” value (shortened to “IC50 (μg/mL) values … HeLa”) in [3] (HeLa, MTT, mean ± SD of three experiments) was 8.90 ± 0.89 µg/mL. In series [4] (HepG2, MTT, mean ± SD of three experiments), the “IC50 (μg/mL) values in various cell lines, HepG2” value (from here on “IC50 (μg/mL) values … HepG2”) amounted to 10.43 ± 1.23 µg/mL.
Turning to `CC(C)C[C@@H]1NC(=O)[C@H](CC(C)C)N(C)C(=O)[C@H](Cc2c[nH]c3ccccc23)NC(=O)[C@H](CC(C)C)N(C)C(=O)[C@H](CC(C)C)NC1=O` [Compound 3, cyclo(Trp-N-Me-Leu-Leu-Leu-N-Me-Leu)] (HELM PEPTIDE1{L.L.[meL].W.[meL]}$PEPTIDE1,PEPTIDE1,1:R1-5:R2$$$V2.0), in series [1], the “IC50 (μg/mL) values … MD-MBA-231” value is 3.51 ± 1.32 µg/mL (≈ 5.26 µM). In addition, in series [2], the “cytotoxicity relative to parent structure galaxamide” value is “almost sixfold higher cytotoxicity”. In addition, the “IC50 (μg/mL) values … MCF-7” value in series [2] (48 h) is 1.72 ± 0.85 µg/mL (≈ 2.58 µM). Further, in series [2] (setting [10]), the “fold less active than doxorubicin” value is listed as 3.44 fold and the “fold more active than anticancer drug DPP” value is 8.49 fold. Also, in [3], the “IC50 (μg/mL) values … HeLa” value came out at 5.32 ± 0.42 µg/mL (≈ 7.98 µM). Further, in [4], the “IC50 (μg/mL) values … HepG2” value is 3.98 ± 0.71 µg/mL (≈ 5.97 µM). The “IC50 (μg/mL) values in various cell lines, HUVECs” value (“IC50 (μg/mL) values … HUVECs” below) in series [5] was above 40 µg/mL. For the same compound, the induction of apoptosis entry with MCF-7 cells [6] is listed as “significantly induced the apoptosis of human breast cancer MCF-7 cells in a dose-dependent manner”. Also, in the series with MCF-7 cells [7], the cell cycle arrest entry is “induced a significant G1 phase arrest of cell cycle progression in a dose-dependent manner”. Moreover, the “JC-1 fluorescence ratio (red/green), MMP” value with MCF-7 cells [8] is “reduced dose dependently”. The “intracellular ROS” value with MCF-7 cells [9] is listed as “induced ROS in a dose-dependent manner”.
Take `CC(C)C[C@@H]1NC(=O)[C@H](CC(C)C)N(C)C(=O)[C@H](Cc2ccccc2)NC(=O)[C@H](CC(C)C)N(C)C(=O)[C@H](CC(C)C)NC1=O` [Compound 1, cyclo(Phe-N-Me-Leu-Leu-Leu-N-Me-Leu)]: the “IC50 (μg/mL) values … MD-MBA-231” value in series [1] was found to be 5.83 ± 0.45 µg/mL (≈ 9.29 µM). Besides, the “IC50 (μg/mL) values … MCF-7” value in series [2] (48 h) came out at 4.76 ± 1.36 µg/mL (≈ 7.58 µM). In series [3], the “IC50 (μg/mL) values … HeLa” value is 13.22 ± 1.12 µg/mL (≈ 21.1 µM). In [4], the “IC50 (μg/mL) values … HepG2” value amounted to 6.25 ± 1.03 µg/mL (≈ 9.95 µM). Besides, in series [5], the “IC50 (μg/mL) values … HUVECs” value was above 40 µg/mL.
On to `CC(C)C[C@@H]1NC(=O)[C@H](CC(C)C)N(C)C(=O)[C@H](CC(C)C)NC(=O)[C@H](CC(C)C)N(C)C(=O)[C@H](CC(C)C)NC1=O` [Galaxamide, galaxamide] (HELM PEPTIDE1{L.L.[meL].L.[meL]}$PEPTIDE1,PEPTIDE1,1:R1-5:R2$$$V2.0), for which the “JC-1 fluorescence ratio (red/green), MMP” value with MCF-7 cells [8] is “reduced dose dependently”. In the series on MCF-7 cells [9], the “intracellular ROS” value is listed as “induced ROS in a dose-dependent manner”.
On to `CC(C)C[C@@H]1NC(=O)[C@H](CC(C)C)N(C)C(=O)[C@H](Cc2ccc3ccccc3c2)NC(=O)[C@H](CC(C)C)N(C)C(=O)[C@H](CC(C)C)NC1=O` [Compound 2, cyclo(Nal-N-Me-Leu-Leu-Leu-N-Me-Leu)] (HELM PEPTIDE1{[O=C([C@H](Cc1ccc2ccccc2c1)N[*:1])[*:2]].[meL].L.L.[meL]}$PEPTIDE1,PEPTIDE1,1:R1-5:R2$$$V2.0), for which the “IC50 (μg/mL) values … MD-MBA-231” value in series [1] is 4.48 ± 2.24 µg/mL (≈ 6.61 µM). Besides, the “IC50 (μg/mL) values … MCF-7” value in series [2] (48 h) worked out at 3.16 ± 0.92 µg/mL (≈ 4.66 µM). The “IC50 (μg/mL) values … HepG2” value in [4] was found to be 8.42 ± 1.82 µg/mL (≈ 12.4 µM). The “IC50 (μg/mL) values … HUVECs” value in [5] was above 40 µg/mL.
